The text below walks through data of patent US12343335B2, “Pharmaceutical composition for treating multiple sclerosis on basis of AMPK inhibitory function and zinc homeostasis control function” (ZINCURE CORP., priority 2019, dated 2025).

Common to all, as to type: in vivo, C57BL/6 female mice
Assay [1] relates to MOG35-55-induced experimental autoimmune encephalomyelitis (EAE). Kind of assay: EAE clinical symptom assessment and incidence rate, 21 days after immunization. The following applies: EAE mice, 1H10 intraperitoneally once a day, vs vehicle. An excerpt:
The experimental animals used in the present invention are an 8-week-old, C57BL/6 female mice supplied from Dae Han BioLink, Co., Ltd. (Korea). These mice were bred in an environment controlled by temperature and humidity, and feed and water were fed freely.
The present inventors induced experimental autoimmune encephalomyelitis (EAE), an animal model of multiple sclerosis, by subcutaneously injecting Myelin oligodendrocyte glycoprotein 35-55 (MOG35-55) peptide antigen into C57BL/6 female mice (FIG. 1A). For this, MOG35-55 (Ana spec, USA) and Complete freund's adjuvant (CFA) were first prepared, and MOG35-55 (2 mg/ml) was dissolved in Phosphate buffered saline (lx PBS, Sigma), and then the 25 ml of CFA was prepared by dispending 25 ml of incomplete freund's adjuvant (IFA. Sigma) in a 50 ml conical tube. Then, in a fume hood, Mycobacterium tuberculosis H37Ra (100 mg; Difco, USA) was added to the IFA in order to prepare CFA and store it in the refrigerator after vortexing before use. […] After the immunization, the mice's body weight and clinical symptoms were measured every day, and the degree of EAE progression was evaluated based on specific clinical symptoms. […]
(§1) EAE clinical symptom was evaluated based on previous studies (Jones et al., J. Neuroimmunol. 199(1-2): 83-93. 2008). […]

Assay [2] has as its system spinal cord of MOG35-55 immunized EAE mice. Kind of assay: Immunofluorescence staining of spinal cord of EAE mice. As for the experimental part: (§2) The present inventors induced experimental autoimmune encephalomyelitis (EAE), an animal model of multiple sclerosis, by subcutaneously injecting Myelin oligodendrocyte glycoprotein 35-55 (MOG35-55) peptide antigen into C57BL/6 female mice (FIG. 1A). For this, MOG35-55 (Ana spec, USA) and Complete freund's adjuvant (CFA) were first prepared, and MOG35-55 (2 mg/ml) was dissolved in Phosphate buffered saline (lx PBS, Sigma), and then the 25 ml of CFA was prepared by dispending 25 ml of incomplete freund's adjuvant (IFA. Sigma) in a 50 ml conical tube. Then, in a fume hood, Mycobacterium tuberculosis H37Ra (100 mg; Difco, USA) was added to the IFA in order to prepare CFA and store it in the refrigerator after vortexing before use. Thereafter, MOG35-55 and CFA containing Mycobacterium tuberculosis H37Ra was mixed in the same amount and injected into both flanks of the mice. And then Pertussis toxin (4 μg/ml, List Biological Laboratories, USA) was injected intraperitoneally on the day of immunization and on the second day after immunization. After the immunization, the mice's body weight and clinical symptoms were measured every day, and the degree of EAE progression was evaluated based on specific clinical symptoms. More details on this are provided below.
On the 21st day after EAE induction, the present inventors anesthetized mice with urethane and then perfused 4% paraformaldehyde into the heart to fix the spinal cord. After extracting the spinal cord, in order to examine demyelination of activity of microglia/macrophages the cell/macrophage activity of the tissue, immunofluorescence staining was performed with anti-myelin basic protein (MBP) and anti-F4/80 (Microglia/Macrophage) antibodies. In addition, anti-bodies against ionized calcium binding adapter molecule-1 (Iba-1) and anti-CD68 (Cluster of Differentiation 68) used as markers of microglia/macrophages to analyze the phenotype of strongly activated microglia/macrophages in the white matter part of the damaged spinal cord. Double immunofluorescence staining was performed using antibodies against CD8 and matrix metalloproteinase 9 (MMP-9) in order to investigate how AMP-activated protein kinase (AMPK) activity affects the survival of these cells. In addition, double immunofluorescence staining was performed using anti-CD8 and anti-phospho-AMPK antibodies to determine how AMP-activated protein kinase (AMPK) activity affects the survival of these cells in T cells infiltrating the spinal cord. In order to compare and analyze the activity of (MMP-9), immunofluorescence staining was performed using anti-MMP-9 antibodies. To examine the activity of astrocytes in the spinal cord, immunofluorescence staining was performed using anti-glial fibrillary acidic protein (GFAP) antibodies. To compare and analyze the expression of cytokines such as tumor necrosis factor (TNF) alpha and interferon (IFN) gamma, double immunofluorescence staining was performed using anti-TNF-alpha and anti-IFN gamma antibodies. In the same manner as the immunohistochemical method described above, the cryosections were reacted with 3% hydrogen peroxide at room temperature for 15 minutes to remove endogenous peroxidase, and then the primary antibodies, rat anti-MBP (1:200, Abcam, UK), anti-F4/80 (1:100, eBioscience, USA), goat anti-Iba1 (1:500, Abcam), anti-CD68 (1:100, Bio-Rad Laboratories, USA), anti-CD8 (1:50, BD Bioscience), anti-p-AMPK (1:100, Abcam), anti-MMP-9 (1:100, Abcam), anti-GFAP (1:500, Abcam), anti-IFN gamma (1:100, Invitrogen, USA), anti-TNF alpha (1:250, Abcam) antibodies were reacted for 15 hours at 4° C. Then, Alexa Fluor 488-, 594-, 647-conjugated secondary antibodies (1:250, Invitrogen, USA) suitable for the host of each primary antibodies were reacted at room temperature for 2 hours. […]

Assay [3] concerns MOG35-55-induced experimental autoimmune encephalomyelitis (EAE). Kind of assay: Long-term EAE model, 45 days after initial immunization. The following applies: intraperitoneally once a day. On the procedure:
as §2, §1

Setting [4] is: spinal cord white matter, day 21 after EAE induction, compared to vehicle only.
Where [5] appears, read: spinal cord, day 21 after EAE induction, vs vehicle.

Consider `O=C1N=C(Nc2cccc(O)c2)S/C1=C\c1c[nH]c2ccccc12` [1H10, (Z)-5-((1H-indol-3-yl)methylene)-2-((3-hydroxyphenyl)amino)thiazol-4(5H)-one], for which, in assay [1], the “behavioral disorders (EAE clinical score)” value is “significantly inhibited” and the incidence rate result is on record as “suppressed”. Besides, the “phosphorylation of AMPK in CD8+ T cells infiltrated into the spinal cord” value in assay [2] (after EAE induction, vs vehicle) is “significantly decreased”. In addition, in assay [2] (spinal cord white matter, EAE, compared to vehicle only), the “activity of MMP-9” value was “inhibited”. The “activity of astrocytes (GFAP)” value in assay [2] (spinal cord white matter, day 21, vs vehicle) is recorded as “significantly inhibited”. In addition, in assay [2] (setting [4]), the “expression of IFN gamma” value is reported as “increased” and the “expression of TNF alpha” value is “decreased”. For the same molecule, the “activated M1-type microglia/macrophages (Iba-1 and CD68 co-expression)” value in assay [2] (spinal cord, after EAE induction, vs vehicle) is reported as “significantly reduced”. Further, in assay [2] (setting [5]), the “EAE-induced demyelination (MBP staining)” value is recorded as “significantly decreased” and the “activity of microglia/macrophages (F4/80)” value is “significantly decreased”. Also, in assay [3], the clinical symptoms entry is “significantly reduced” and the incidence rate result is given as “significantly reduced”.
